Assay type in all cases: cell-based
One assay concerns SK-MEL-5 cells. Put plainly: Anti proliferative activity, Cell Titer Glo assay, SK-MEL-5. Particulars: Homo sapiens, SK-MEL-5, SK-MEL-5 cells, retreatment Day 4, terminated day 8, CellTiter-Glo. The method, then:
Example-P3: Determination of Anti Proliferative Activity of Compounds by Cell Titer Glo®(Promega) Assay
Cells were seeded into 96-well plates and the plate was incubated in 37 degrees incubator overnight. The next day, compounds were diluted 3-fold to cover 9-point concentration range in DMSO. Intermediate plate dilution was prepared in media followed with compound treatment in cells. Retreatment of cells with compound dilutions was performed on Day 4 and assay was terminated on day 8 for SK-MEL-5 cells using CellTiter-Glo and the plate was kept on orbital shaker for 20 minutes at RT. Assay was terminated on day 6 for RERF-LC-A1 without a compound retreatment. Luminescence signal was recorded on VICTOR^3 instrument. Percent inhibition of proliferation was calculated at each concentration and plotted against the compound concentration. EC50 value was calculated using GraphPad software.
(In general: ATP-based viability assays read luminescence as a measure of living cells.)

Another assay addresses T1, SMARCA2 (Homo sapiens, UniProt P51531).
T1 construct: Determination of SMARCA2 and SMARCA4 Degradation in VCaP Cells by Western Blot; endogenous in cells; host or cells: VCaP (ATCC CRL-2876)
Put plainly: SMARCA2 degradation in VCaP cells by Western blot. Particulars: 16 hours. The procedure: Example-P2: Determination of SMARCA2 and SMARCA4 Degradation in VCaP Cells by Western Blot
VCaP (ATCC CRL-2876) was plated in 6 well plates using complete Dulbecco's Modified Eagle's Medium. On the third day, compounds of present invention were added to cells from 10 mM stocks made in DMSO (Sigma Cat no. D2650). Each concentration of compound was tested with DMSO not exceeding final percentage of 0.3 in the cells. Cells were incubated with the compound for 16 hours followed by harvesting with 1×RIPA lysis buffer (Thermo Fischer, catalogue number #89900) containing protease inhibitor cocktail (Sigma catalogue number #P-8340). Equal amount of protein was loaded on SDS PAGE gel for electrophoresis. Western blot was carried out for detection of either SMARCA2 (Cell signalling technologies, catalogue number #11966) or SMARCA4 antibody (Cell signalling technologies, catalogue number #52251). Beta-Tubulin antibody (Cell signalling technologies, catalogue number #86298) was used as loading control. Percentage of SMARCA2 or SMARCA4 degradation was calculated using formula % Degradation=100−(normalized band intensity in treated sample/normalized band intensity in DMSO sample)*100.

Another assay deals with T2, SMARCA4 (Homo sapiens, UniProt P51532).
T2 construct: Determination of SMARCA2 and SMARCA4 Degradation in VCaP Cells by Western Blot; endogenous in cells; host or cells: VCaP (ATCC CRL-2876)
Put plainly: SMARCA4 degradation in VCaP cells by Western blot. Particulars: 16 hours. The method, then: On the third day, compounds of present invention were added to cells from 10 mM stocks made in DMSO (Sigma Cat no. D2650). Each concentration of compound was tested with DMSO not exceeding final percentage of 0.3 in the cells. […] Equal amount of protein was loaded on SDS PAGE gel for electrophoresis. […] Percentage of SMARCA2 or SMARCA4 degradation was calculated using formula % Degradation=100−(normalized band intensity in treated sample/normalized band intensity in DMSO sample)*100.
For orientation: In western blotting, separated proteins are transferred to a membrane and probed.

From US12570650B2, “6-substituted pyridazine compounds as SMARCA2 and/or SMARCA4 degraders” (Aurigene Oncology Limited, priority 2020, dated 2026) come the findings set out here.

T1 sequence (P51531 whole entry): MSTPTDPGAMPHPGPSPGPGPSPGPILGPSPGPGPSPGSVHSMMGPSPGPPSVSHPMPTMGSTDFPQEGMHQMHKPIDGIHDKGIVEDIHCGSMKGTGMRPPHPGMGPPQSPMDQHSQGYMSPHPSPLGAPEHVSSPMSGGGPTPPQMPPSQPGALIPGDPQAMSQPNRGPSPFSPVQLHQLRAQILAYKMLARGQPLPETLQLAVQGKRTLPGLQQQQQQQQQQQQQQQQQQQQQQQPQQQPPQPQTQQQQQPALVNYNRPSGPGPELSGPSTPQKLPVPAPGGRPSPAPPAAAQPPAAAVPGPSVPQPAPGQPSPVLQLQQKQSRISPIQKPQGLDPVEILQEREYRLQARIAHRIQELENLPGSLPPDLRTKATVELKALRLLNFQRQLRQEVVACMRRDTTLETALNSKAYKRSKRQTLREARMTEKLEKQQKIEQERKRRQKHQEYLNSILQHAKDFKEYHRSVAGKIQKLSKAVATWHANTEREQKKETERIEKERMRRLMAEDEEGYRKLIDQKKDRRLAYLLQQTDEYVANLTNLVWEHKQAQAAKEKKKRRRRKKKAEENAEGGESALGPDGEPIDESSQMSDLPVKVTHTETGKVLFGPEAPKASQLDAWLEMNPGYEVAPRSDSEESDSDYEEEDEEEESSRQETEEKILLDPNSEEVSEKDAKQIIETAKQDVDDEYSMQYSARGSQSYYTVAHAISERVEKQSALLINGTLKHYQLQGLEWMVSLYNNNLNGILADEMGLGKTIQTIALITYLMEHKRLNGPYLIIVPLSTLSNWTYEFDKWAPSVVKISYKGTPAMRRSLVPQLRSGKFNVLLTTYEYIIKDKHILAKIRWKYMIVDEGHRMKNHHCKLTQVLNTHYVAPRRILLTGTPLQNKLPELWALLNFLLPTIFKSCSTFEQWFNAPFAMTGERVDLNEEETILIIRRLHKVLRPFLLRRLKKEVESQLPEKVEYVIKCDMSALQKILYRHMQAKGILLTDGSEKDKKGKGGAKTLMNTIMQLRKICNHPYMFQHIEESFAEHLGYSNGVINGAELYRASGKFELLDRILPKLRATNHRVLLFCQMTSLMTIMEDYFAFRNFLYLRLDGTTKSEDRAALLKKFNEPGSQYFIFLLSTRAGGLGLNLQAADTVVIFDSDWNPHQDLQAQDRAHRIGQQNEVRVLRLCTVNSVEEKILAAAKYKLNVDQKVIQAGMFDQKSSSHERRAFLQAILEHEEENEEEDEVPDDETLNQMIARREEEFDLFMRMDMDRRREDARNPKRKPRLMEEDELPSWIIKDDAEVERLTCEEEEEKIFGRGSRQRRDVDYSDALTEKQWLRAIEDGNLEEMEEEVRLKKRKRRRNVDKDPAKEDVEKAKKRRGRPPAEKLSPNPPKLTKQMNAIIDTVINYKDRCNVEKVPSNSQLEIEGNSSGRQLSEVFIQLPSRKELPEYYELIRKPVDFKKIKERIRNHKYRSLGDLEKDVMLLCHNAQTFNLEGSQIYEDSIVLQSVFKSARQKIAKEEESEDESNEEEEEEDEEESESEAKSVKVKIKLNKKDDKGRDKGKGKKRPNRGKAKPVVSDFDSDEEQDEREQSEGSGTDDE
T2 sequence (P51532 whole entry): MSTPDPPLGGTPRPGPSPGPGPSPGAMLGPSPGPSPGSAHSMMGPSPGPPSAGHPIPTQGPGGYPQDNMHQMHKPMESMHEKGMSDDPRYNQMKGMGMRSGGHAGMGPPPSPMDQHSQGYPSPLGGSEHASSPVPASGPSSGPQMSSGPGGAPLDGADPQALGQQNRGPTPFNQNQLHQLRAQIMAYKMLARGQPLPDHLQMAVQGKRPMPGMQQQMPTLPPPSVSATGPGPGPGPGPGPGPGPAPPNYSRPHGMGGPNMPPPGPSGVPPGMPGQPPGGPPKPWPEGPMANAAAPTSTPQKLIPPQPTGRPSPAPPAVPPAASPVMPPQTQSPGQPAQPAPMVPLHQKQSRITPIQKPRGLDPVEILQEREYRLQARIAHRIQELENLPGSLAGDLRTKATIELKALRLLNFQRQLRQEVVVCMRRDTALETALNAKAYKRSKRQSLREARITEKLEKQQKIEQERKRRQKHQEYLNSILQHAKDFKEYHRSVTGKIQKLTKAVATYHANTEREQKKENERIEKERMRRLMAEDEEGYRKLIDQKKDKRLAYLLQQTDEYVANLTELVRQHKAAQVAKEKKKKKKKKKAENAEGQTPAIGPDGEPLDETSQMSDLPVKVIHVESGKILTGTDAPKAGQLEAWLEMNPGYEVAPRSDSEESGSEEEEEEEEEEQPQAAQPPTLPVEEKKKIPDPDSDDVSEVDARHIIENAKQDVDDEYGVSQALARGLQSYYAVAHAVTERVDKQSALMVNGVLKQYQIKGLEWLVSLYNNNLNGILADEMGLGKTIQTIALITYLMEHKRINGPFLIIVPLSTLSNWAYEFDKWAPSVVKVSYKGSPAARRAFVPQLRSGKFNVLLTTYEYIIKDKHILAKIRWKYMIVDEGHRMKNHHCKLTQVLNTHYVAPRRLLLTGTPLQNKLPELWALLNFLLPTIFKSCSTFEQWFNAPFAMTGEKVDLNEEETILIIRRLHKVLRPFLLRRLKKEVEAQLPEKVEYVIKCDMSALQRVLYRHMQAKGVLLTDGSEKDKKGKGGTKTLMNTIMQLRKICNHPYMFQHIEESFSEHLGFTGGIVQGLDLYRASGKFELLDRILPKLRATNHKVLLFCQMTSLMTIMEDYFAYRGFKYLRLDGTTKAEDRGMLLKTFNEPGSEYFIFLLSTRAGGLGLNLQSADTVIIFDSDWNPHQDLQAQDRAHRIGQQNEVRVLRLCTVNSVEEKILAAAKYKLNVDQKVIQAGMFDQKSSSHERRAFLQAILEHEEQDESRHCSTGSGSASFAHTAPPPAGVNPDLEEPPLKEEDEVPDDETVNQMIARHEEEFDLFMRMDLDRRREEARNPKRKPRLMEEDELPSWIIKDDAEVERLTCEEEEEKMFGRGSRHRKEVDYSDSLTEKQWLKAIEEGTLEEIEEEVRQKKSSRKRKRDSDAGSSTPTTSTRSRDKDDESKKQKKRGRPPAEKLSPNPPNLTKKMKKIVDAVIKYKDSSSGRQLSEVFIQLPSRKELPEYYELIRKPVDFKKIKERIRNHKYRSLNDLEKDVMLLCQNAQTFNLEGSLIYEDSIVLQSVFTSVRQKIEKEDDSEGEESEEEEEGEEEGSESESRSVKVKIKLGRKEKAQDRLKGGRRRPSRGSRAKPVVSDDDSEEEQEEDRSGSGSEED

Turning to `Cc1ncsc1-c1ccc([C@H](C)NC(=O)[C@@H]2C[C@@H](O)CN2C(=O)[C@@H](NC(=O)C2CCC(c3ccc(-c4cnnc(-c5ccccc5O)c4)cc3)CC2)C(C)(C)C)cc1` (stereo partly drawn) [Compound 18, (2S,4R)-4-hydroxy-1-((S)-2-(4-(4-(6-(2-hydroxyphenyl)pyridazin-4-yl)phenyl)cyclohexane-1-carboxamido)-3,3-dimethylbutanoyl)-N-((S)-1-(4-(4-methylthiazol-5-yl)phenyl)ethyl)pyrrolidine-2-carboxamide], the EC50 (as a rule, the midpoint of the concentration-response curve) in the assay with SK-MEL-5 cells is less than 250 nM. Further, on SMARCA2, the “Percent degradation (at 100 nM) SMARCA2” value came out at 95%. The “Percent degradation (at 100 nM) SMARCA4” value at SMARCA4 was 0%.

On to `Cc1ncsc1-c1ccc([C@H](C)NC(=O)[C@@H]2C[C@@H](O)CN2C(=O)[C@@H](NC(=O)CN2CCCC(c3ccc(-c4cnnc(-c5ccccc5O)c4)cc3)C2)C(C)(C)C)cc1` (stereo partly drawn) [Compound 20, (2S,4R)-4-hydroxy-1-((2S)-2-(2-(3-(4-(6-(2-hydroxyphenyl)pyridazin-4-yl)phenyl)piperidin-1-yl)acetamido)-3,3-dimethylbutanoyl)-N-((S)-1-(4-(4-methylthiazol-5-yl)phenyl)ethyl)pyrrolidine-2-carboxamide], for which the EC50 in the assay with SK-MEL-5 cells lay within 250 to 500 nM. On SMARCA2, the “Percent degradation (at 100 nM) SMARCA2” value amounted to 41%. The “Percent degradation (at 100 nM) SMARCA4” value on SMARCA4 worked out at 0%.

Regarding `Cc1ncsc1-c1ccc([C@H](C)NC(=O)[C@@H]2C[C@@H](O)CN2C(=O)[C@@H](NC(=O)CN2CC(c3ccc(-c4cnnc(-c5ccccc5O)c4)cc3)C2)C(C)(C)C)cc1` [Compound 21, (2S,4R)-4-hydroxy-1-((S)-2-(2-(3-(4-(6-(2-hydroxyphenyl)pyridazin-4-yl)phenyl)azetidin-1-yl)acetamido)-3,3-dimethylbutanoyl)-N-((S)-1-(4-(4-methylthiazol-5-yl)phenyl)ethyl)pyrrolidine-2-carboxamide], the EC50 with SK-MEL-5 cells is greater than 500 nM. The “Percent degradation (at 100 nM) SMARCA2” value at SMARCA2 amounted to 21%. In addition, the “Percent degradation (at 100 nM) SMARCA4” value at SMARCA4 came to 4%.

In turn, `Cc1ncsc1-c1ccc([C@H](C)NC(=O)[C@@H]2C[C@@H](O)CN2C(=O)[C@@H](NC(=O)CN2CCC(c3cccc(-c4cnnc(-c5ccccc5O)c4)c3)CC2)C(C)(C)C)cc1` [Compound 23, (2S,4R)-4-hydroxy-1-((S)-2-(2-(4-(3-(6-(2-hydroxyphenyl)pyridazin-4-yl)phenyl)piperidin-1-yl)acetamido)-3,3-dimethylbutanoyl)-N-((S)-1-(4-(4-methylthiazol-5-yl)phenyl)ethyl)pyrrolidine-2-carboxamide] registered an EC50 in the assay on SK-MEL-5 cells greater than 500 nM. Moreover, the “Percent degradation (at 100 nM) SMARCA2” value at SMARCA2 came out at 15%. For the same molecule, the “Percent degradation (at 100 nM) SMARCA4” value on SMARCA4 is 0%.

On to `Cc1ncsc1-c1ccc([C@H](C)NC(=O)[C@@H]2C[C@@H](O)CN2C(=O)[C@@H](NC(=O)CN2C3CCC2CC(c2ccc(-c4cnnc(-c5ccccc5O)c4)cc2)C3)C(C)(C)C)cc1` (stereo partly drawn) [Compound 25, (2S,4R)-4-hydroxy-1-((2S)-2-(2-(3-(4-(6-(2-hydroxyphenyl)pyridazin-4-yl)phenyl)-8-azabicyclo[3.2.1]octan-8-yl)acetamido)-3,3-dimethylbutanoyl)-N-((S)-1-(4-(4-methylthiazol-5-yl)phenyl)ethyl)pyrrolidine-2-carboxamide], for which the EC50 in the assay with SK-MEL-5 cells fell in the range of 250 to 500 nM. The “Percent degradation (at 100 nM) SMARCA2” value at SMARCA2 worked out at 75%. The “Percent degradation (at 100 nM) SMARCA4” value on SMARCA4 is 0%.

With `Cc1ncsc1-c1ccc([C@H](C)NC(=O)[C@@H]2C[C@@H](O)CN2C(=O)[C@@H](NC(=O)C(C)N2CCN(c3ccc(-c4cnnc(-c5ccccc5O)c4)cc3)CC2)C(C)(C)C)cc1` (stereo partly drawn) [Compound 28], the EC50 in the assay with SK-MEL-5 cells was in the range of 250 to 500 nM. In addition, on SMARCA2, the “Percent degradation (at 100 nM) SMARCA2” value amounted to 38%. Besides, the “Percent degradation (at 100 nM) SMARCA4” value at SMARCA4 was found to be 0%.
